In PubChem BioAssay (NCI):
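Five concentrations, 48 hours, 96-well plates. TGI marks complete inhibition of growth.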

test system: TK-10 renal; test: DTP human tumour cell line panel, 48 h

Compound	TGI [µM]
NC(=O)C(N)Cc1ccc(O)cn1 (configuration not stated)	> 100
CC[N+](CC)(CCNCC(N)=O)CC(N)=O	> 10
COc1ccc(N=C2SC(=N/N=c3\sc4ccccc4n3C)SC2=Nc2ccc(OC)cc2)cc1	> 100
Cc1ccc(/C=N/n2c(=O)[nH]c3ccccc3c2=O)cc1	> 100
S=C(c1c[nH]c2ccccc12)N1CCOCC1	> 100
COc1ccc(C2CC(=O)CC(c3ccc(OC)cc3)C23C(=O)NC(=O)NC3=O)cc1 (configuration not stated)	> 100
COC(C)(C)C1=CCC(C)CC1 (configuration not stated)	> 100
c1ccc2sc(C3(N4CCCC4)CCCCCC3)cc2c1	45.1

test system: NCI/ADR-RES ovarian; test: DTP human tumour cell line panel, 48 h

Compound	TGI [µM]
CC1CC(N)=Nc2ccccc2N1 (configuration not stated)	> 100
S=C(NCc1ccccc1)c1nc[nH]c1C(=S)NCc1ccccc1	16.3
CC(C)(Cc1ccccc1)NC1=NCCO1	> 100
CN(c1ccc(Cl)cc1)S(=O)(=O)c1cccc([N+](=O)[O-])c1	> 100
Cc1cc2nc3c(C#N)c(-c4ccccc4)cc(Nc4ccc(Cl)cc4)n3c2cc1C	> 100
CN(c1ccc(Cl)cc1)S(=O)(=O)c1ccc([N+](=O)[O-])cc1	> 100
O=C1OC[C@@H]2Cc3cc4c(cc3[C@H](c3ccc5c(c3)OCO5)[C@@H]12)OCO4	> 25
O=S1(=O)OCCOS(=O)(=O)C1F	> 100
CC(=O)n1nc(-c2ccccc2)n(/N=C/c2ccc([N+](=O)[O-])cc2)c1=O	> 100
CCn1c(-c2cc(OC)cc(OC)c2)nc2c1C(=O)c1ccccc1C2=O	> 100
COc1cc(-c2cc(=O)c3c(OC)c(OC)c(OC)c(OC)c3o2)c(OC)c(OC)c1OC	66.8
O=S(=O)(c1ccccc1)n1c2cc3cccnc3nc2c2cccnc21	> 100
Cc1cc(N(CCC#N)CCC#N)ccc1/C(N=Nc1ccc([N+](=O)[O-])cc1)=N\NC(=O)c1cc(Cl)ccc1C(=O)c1ccccc1	50.9
CC(=O)NC1C(OCc2ccccc2)OC(CO)C(O)C1OC(C)C(=O)NC(C)C(=O)NC(CCC(=O)NCCCNc1c2ccccc2nc2cccc([N+](=O)[O-])c12)C(N)=O (configuration not stated)	65.7
NC(=O)C(N)Cc1ccc(O)cn1 (configuration not stated)	> 100
CC[N+](CC)(CCNCC(N)=O)CC(N)=O	> 10
COc1ccc(N=C2SC(=N/N=c3\sc4ccccc4n3C)SC2=Nc2ccc(OC)cc2)cc1	> 100
S=C(c1c[nH]c2ccccc12)N1CCOCC1	> 100
COc1ccc(C2CC(=O)CC(c3ccc(OC)cc3)C23C(=O)NC(=O)NC3=O)cc1 (configuration not stated)	> 100
c1ccc2sc(C3(N4CCCC4)CCCCCC3)cc2c1	44.4

test system: RPMI-8226 leukemia; test: DTP human tumour cell line panel, 48 h

Compound	TGI [µM]
CC1CC(N)=Nc2ccccc2N1 (configuration not stated)	> 100
S=C(NCc1ccccc1)c1nc[nH]c1C(=S)NCc1ccccc1	35.6
CC(C)(Cc1ccccc1)NC1=NCCO1	> 100
CN(c1ccc(Cl)cc1)S(=O)(=O)c1cccc([N+](=O)[O-])c1	> 100
O=C(c1ccc(O)cc1)C1c2c3c(cc(O)c2C(c2ccc(O)cc2)C1c1cc(O)cc(O)c1)OC(c1ccc(O)cc1)C3c1cc2c(cc1O)OC(c1ccc(O)cc1)C2c1cc(O)cc(O)c1 (configuration not stated)	> 12.5
Cc1cc2nc3c(C#N)c(-c4ccccc4)cc(Nc4ccc(Cl)cc4)n3c2cc1C	> 100
CN(c1ccc(Cl)cc1)S(=O)(=O)c1ccc([N+](=O)[O-])cc1	> 100
O=C1OC[C@@H]2Cc3cc4c(cc3[C@H](c3ccc5c(c3)OCO5)[C@@H]12)OCO4	> 25
O=S1(=O)OCCOS(=O)(=O)C1F	> 100
CC(=O)n1nc(-c2ccccc2)n(/N=C/c2ccc([N+](=O)[O-])cc2)c1=O	> 100
COc1cc(C[S+]2CCCC2)c(SC)cc1C[S+]1CCCC1	> 100
CCn1c(-c2cc(OC)cc(OC)c2)nc2c1C(=O)c1ccccc1C2=O	> 100
COc1cc(-c2cc(=O)c3c(OC)c(OC)c(OC)c(OC)c3o2)c(OC)c(OC)c1OC	> 100
C[C@]12C=CC(=O)C=C1CC[C@H]1[C@@H]3C[C@@H](O)[C@](O)(C(=O)CO)[C@@]3(C)C[C@H](O)[C@@]12F	> 100
O=S(=O)(c1ccccc1)n1c2cc3cccnc3nc2c2cccnc21	56.6
COc1cc(/C=C2\CCC(C)C3C2=NN(C(C)=O)C3c2cc(OC)c(OC)c(OC)c2)cc(OC)c1OC (configuration not stated)	> 100
Cc1cc(N(CCC#N)CCC#N)ccc1/C(N=Nc1ccc([N+](=O)[O-])cc1)=N\NC(=O)c1cc(Cl)ccc1C(=O)c1ccccc1	38.4
CC(=O)NC1C(OCc2ccccc2)OC(CO)C(O)C1OC(C)C(=O)NC(C)C(=O)NC(CCC(=O)NCCCNc1c2ccccc2nc2cccc([N+](=O)[O-])c12)C(N)=O (configuration not stated)	> 100
NC(=O)C(N)Cc1ccc(O)cn1 (configuration not stated)	> 100
CC[N+](CC)(CCNCC(N)=O)CC(N)=O	> 10
COc1ccc(N=C2SC(=N/N=c3\sc4ccccc4n3C)SC2=Nc2ccc(OC)cc2)cc1	> 100
Cc1ccc(/C=N/n2c(=O)[nH]c3ccccc3c2=O)cc1	> 100
S=C(c1c[nH]c2ccccc12)N1CCOCC1	> 100
COC(C)(C)C1=CCC(C)CC1 (configuration not stated)	> 100

test system: CCRF-CEM leukemia; test: DTP human tumour cell line panel, 48 h

Compound	TGI [µM]
CC1CC(N)=Nc2ccccc2N1 (configuration not stated)	> 100
S=C(NCc1ccccc1)c1nc[nH]c1C(=S)NCc1ccccc1	12.1
CC(C)(Cc1ccccc1)NC1=NCCO1	> 100
CN(c1ccc(Cl)cc1)S(=O)(=O)c1cccc([N+](=O)[O-])c1	> 100
O=C(c1ccc(O)cc1)C1c2c3c(cc(O)c2C(c2ccc(O)cc2)C1c1cc(O)cc(O)c1)OC(c1ccc(O)cc1)C3c1cc2c(cc1O)OC(c1ccc(O)cc1)C2c1cc(O)cc(O)c1 (configuration not stated)	> 12.5
